Molecules are shown by their SMILES. Like-named read-outs stand apart in the source and are kept apart here.

This is an account of results in US20090155815A1, “CRYSTAL STRUCTURE OF THE CARBOXYL TRANSFERASE DOMAIN OF HUMAN ACETYL-COA CARBOXYLASE 2 PROTEIN (ACC2 CT) AND USES THEREOF” (priority 2007, published 2009).

The assay has as its system ACC2 CT. In words: NADH reverse-coupled assay. As to conditions: reverse reaction. The assay is classed as biochemical, human.

Procedure: In the reverse reaction, ACC2 CT catalyzes the production of Acetyl CoA using malonyl CoA and biocytin as the substrates.
The activity of ACC2 CT in the reverse reaction is measured indirectly by coupling the reaction with two other enzymes, malate dehydrogenase and citrate synthase. Malate dehydrogenase converts NAD+ and malate to produce NADH and oxaloacetate. The acetyl CoA produced by the ACC2 CT reverse reaction and the oxaloacetate produced by the malate dehydrogenase reaction are consumed as the substrates for the citrate synthase reaction. The final products of the citrate synthase reaction are citric acid and CoA, but it is the production of NADH that acts as the readout for the activity of ACC2 CT. The conversion of NAD+ to NADH is detected by reading absorbance at 340 nm.
The final assay conditions are 50 nM ACC2 CT, 1 mM Malonyl CoA, 20 mM Biocytin, 8 mM Malic Acid, 3 mM NAD+, 100 units/mL Malate Dehydrogenase, 20 units/mL Citrate Synthase, 50 mM Hepes pH 7.0, 100 mM NaCl, 0.01% Tween 20, and compounds are used with a 200-fold dilution of 100% DMSO stock for a final concentration of 0.5% DMSO.
Absorbance data is collected at 340 nm and 37° C. for at least 30 minutes. Linear kinetic rates (mOD/min) are used to calculate % inhibition values of the compounds tested.

`N[C@@H](CCCCNC(=O)CCCC[C@@H]1SC[C@@H]2NC(=O)N[C@@H]21)C(=O)O` [Biocytin]: the Km (could not be precisely determined, estimated, read-out: kM of Biocytin) was around 20000 µM.

With `CC(C)(COP(=O)(O)OP(=O)(O)OC[C@H]1O[C@@H](n2cnc3c(N)ncnc32)[C@H](O)[C@@H]1OP(=O)(O)O)[C@@H](O)C(=O)NCCC(=O)NCCSC(=O)CC(=O)O` [Malonyl CoA], the Km is, setting by setting: (against 50 nM ACC2/20 mM Biocytin, 37° C., absorbance 340 nm, read-out: kM of Malonyl CoA) 160 µM; (against ACC2/No Biocytin, 37° C., absorbance 340 nm, read-out: kM of Malonyl CoA) 130 µM.
